Experimental data reported in the kinase profiling compilation of Christmann-Franck et al. (2016).

Experiments:
Assay in all cases: KINOMEscan competition binding
Conditions in all cases: compound 10.0 µM
CSNK1G2 (human) = CSNK1G2 (human) (UniProt P78368)
ROCK2 (human) = ROCK2 (human) (UniProt O75116)
FGFR4 (human) = FGFR4 (human) (UniProt P22455)
MAP2K4 (human) = MAP2K4 (human) (UniProt P45985)
CSK (human) = CSK (human) (UniProt P41240)
TESK1 (human) = TESK1 (human) (UniProt Q15569)
MAP4K3 (human) = MAP4K3 (human) (UniProt Q8IVH8)
Sequence of MAP4K3 (human) (Q8IVH8 whole entry, looked up): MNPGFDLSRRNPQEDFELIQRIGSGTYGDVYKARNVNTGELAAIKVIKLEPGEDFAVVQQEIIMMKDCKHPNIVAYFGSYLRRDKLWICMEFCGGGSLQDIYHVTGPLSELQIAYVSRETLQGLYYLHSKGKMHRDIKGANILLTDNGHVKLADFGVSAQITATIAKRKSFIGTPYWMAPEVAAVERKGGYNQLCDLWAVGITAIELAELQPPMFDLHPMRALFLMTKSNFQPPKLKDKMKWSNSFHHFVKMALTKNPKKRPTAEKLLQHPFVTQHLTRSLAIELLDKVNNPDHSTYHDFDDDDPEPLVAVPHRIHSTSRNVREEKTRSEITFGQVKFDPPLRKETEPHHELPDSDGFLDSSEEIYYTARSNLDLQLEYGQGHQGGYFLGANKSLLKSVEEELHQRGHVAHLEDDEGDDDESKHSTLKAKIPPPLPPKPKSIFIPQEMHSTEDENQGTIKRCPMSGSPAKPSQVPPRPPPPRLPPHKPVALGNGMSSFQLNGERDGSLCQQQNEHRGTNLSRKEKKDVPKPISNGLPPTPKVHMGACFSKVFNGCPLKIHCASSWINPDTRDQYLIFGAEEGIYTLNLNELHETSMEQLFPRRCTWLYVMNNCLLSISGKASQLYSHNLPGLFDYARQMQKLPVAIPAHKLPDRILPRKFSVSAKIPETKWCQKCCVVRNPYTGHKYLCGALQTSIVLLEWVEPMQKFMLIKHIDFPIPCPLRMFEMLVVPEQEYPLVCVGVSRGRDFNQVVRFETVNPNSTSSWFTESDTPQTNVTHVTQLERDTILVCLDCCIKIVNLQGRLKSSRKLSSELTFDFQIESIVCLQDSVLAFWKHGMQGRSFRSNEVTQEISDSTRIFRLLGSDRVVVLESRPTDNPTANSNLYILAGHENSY

CLK4 (human) = CLK4 (human) (UniProt Q9HAZ1)
Sequence of CLK4 (human) (Q9HAZ1 whole entry, looked up): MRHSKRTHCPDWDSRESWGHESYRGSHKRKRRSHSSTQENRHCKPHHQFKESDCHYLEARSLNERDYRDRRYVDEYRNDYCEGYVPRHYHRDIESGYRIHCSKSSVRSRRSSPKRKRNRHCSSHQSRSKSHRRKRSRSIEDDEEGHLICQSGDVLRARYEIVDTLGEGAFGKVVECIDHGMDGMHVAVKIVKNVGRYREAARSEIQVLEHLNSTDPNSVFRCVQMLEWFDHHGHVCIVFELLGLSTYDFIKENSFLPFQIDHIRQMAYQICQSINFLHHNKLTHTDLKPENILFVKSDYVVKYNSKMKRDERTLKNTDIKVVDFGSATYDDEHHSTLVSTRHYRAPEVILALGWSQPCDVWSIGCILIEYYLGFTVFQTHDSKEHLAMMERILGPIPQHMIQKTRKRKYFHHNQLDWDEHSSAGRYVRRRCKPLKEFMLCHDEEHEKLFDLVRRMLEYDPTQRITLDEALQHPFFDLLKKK

CAMKK2 (human) = CAMKK2 (human) (UniProt Q96RR4)
PIP5K1A (human) = PIP5K1A (human) (UniProt Q99755)
Sequence of PIP5K1A (human) (Q99755 whole entry, looked up): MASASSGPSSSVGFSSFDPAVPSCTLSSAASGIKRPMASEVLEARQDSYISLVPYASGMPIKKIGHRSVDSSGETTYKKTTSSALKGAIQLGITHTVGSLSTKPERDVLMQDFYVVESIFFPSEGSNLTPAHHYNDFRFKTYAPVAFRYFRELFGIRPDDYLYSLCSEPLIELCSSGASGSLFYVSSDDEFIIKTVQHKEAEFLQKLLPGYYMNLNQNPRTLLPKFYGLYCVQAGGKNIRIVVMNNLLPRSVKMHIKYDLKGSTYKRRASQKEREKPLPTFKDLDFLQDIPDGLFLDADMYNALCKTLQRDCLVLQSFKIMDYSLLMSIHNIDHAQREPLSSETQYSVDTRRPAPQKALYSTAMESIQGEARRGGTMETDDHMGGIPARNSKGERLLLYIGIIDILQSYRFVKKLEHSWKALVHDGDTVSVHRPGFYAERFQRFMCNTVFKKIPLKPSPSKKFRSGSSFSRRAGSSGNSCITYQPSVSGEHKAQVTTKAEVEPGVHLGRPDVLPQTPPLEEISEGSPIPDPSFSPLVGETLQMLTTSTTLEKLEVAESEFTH

CDKL2 (human) = CDKL2 (human) (UniProt Q92772)
CDK5 (human) = CDK5 (human) (UniProt Q00535)
STK10 (human) = STK10 (human) (UniProt O94804)
MAPK6 (human) = MAPK6 (human) (UniProt Q16659)
INSR (human) = INSR (human) (UniProt P06213)
Sequence of INSR (human) (P06213 whole entry, looked up): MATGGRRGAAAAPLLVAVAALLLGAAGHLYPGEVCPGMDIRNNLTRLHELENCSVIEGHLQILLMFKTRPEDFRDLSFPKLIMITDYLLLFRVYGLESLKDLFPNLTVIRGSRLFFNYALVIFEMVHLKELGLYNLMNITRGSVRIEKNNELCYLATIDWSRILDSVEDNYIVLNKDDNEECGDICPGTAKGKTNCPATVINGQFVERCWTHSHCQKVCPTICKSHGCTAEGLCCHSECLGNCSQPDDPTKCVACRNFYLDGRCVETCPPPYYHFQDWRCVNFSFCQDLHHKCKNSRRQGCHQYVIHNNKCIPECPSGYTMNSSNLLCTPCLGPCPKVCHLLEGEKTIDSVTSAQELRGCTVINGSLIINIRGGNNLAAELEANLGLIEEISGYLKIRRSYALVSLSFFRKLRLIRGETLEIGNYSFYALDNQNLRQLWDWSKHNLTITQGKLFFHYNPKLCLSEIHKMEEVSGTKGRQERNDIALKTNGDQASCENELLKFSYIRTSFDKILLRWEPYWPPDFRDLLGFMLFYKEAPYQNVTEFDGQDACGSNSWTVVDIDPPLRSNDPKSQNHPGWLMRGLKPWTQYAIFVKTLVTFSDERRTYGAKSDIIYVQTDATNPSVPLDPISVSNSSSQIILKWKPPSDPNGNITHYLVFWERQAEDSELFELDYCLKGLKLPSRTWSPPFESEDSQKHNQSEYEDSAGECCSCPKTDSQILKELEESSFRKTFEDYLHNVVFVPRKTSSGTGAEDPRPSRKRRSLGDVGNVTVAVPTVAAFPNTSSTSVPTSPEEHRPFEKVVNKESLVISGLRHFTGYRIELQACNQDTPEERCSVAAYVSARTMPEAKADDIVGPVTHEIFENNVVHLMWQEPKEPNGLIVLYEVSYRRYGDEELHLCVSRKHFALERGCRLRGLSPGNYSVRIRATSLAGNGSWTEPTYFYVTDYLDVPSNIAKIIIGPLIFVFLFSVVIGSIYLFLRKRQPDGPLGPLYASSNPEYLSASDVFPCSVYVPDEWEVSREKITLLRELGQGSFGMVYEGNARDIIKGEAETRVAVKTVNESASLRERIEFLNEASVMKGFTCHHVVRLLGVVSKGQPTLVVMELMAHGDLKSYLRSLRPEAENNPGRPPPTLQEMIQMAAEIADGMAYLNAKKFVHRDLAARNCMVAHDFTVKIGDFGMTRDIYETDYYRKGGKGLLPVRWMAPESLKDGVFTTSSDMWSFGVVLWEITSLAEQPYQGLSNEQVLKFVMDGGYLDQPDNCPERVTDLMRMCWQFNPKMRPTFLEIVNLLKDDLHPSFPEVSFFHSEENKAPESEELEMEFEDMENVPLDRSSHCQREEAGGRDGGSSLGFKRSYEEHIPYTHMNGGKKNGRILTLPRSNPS

FGFR2 (human) = FGFR2 (human) (UniProt P21802)
RPS6KA4 KD2 (human) = RPS6KA4 KD2 (human) (UniProt O75676)
[1] = tested on: KIT (human), P10721 [V559D]
MAP3K12 (human) = MAP3K12 (human) (UniProt Q12852)
CHEK2 (human) = CHEK2 (human) (UniProt O96017)
RPS6KA2 KD2 (human) = RPS6KA2 KD2 (human) (UniProt Q15349)
[2] = biological target: TYK2 JH2 pseudokinase (human) (UniProt P29597)
MAP3K9 (human) = MAP3K9 (human) (UniProt P80192)
EPHB3 (human) = EPHB3 (human) (UniProt P54753)
RPS6KA3 KD1 (human) = RPS6KA3 KD1 (human) (UniProt P51812)
MAP4K4 (human) = MAP4K4 (human) (UniProt O95819)
RIPK4 (human) = RIPK4 (human) (UniProt P57078)
Sequence of RIPK4 (human) (P57078 whole entry, looked up): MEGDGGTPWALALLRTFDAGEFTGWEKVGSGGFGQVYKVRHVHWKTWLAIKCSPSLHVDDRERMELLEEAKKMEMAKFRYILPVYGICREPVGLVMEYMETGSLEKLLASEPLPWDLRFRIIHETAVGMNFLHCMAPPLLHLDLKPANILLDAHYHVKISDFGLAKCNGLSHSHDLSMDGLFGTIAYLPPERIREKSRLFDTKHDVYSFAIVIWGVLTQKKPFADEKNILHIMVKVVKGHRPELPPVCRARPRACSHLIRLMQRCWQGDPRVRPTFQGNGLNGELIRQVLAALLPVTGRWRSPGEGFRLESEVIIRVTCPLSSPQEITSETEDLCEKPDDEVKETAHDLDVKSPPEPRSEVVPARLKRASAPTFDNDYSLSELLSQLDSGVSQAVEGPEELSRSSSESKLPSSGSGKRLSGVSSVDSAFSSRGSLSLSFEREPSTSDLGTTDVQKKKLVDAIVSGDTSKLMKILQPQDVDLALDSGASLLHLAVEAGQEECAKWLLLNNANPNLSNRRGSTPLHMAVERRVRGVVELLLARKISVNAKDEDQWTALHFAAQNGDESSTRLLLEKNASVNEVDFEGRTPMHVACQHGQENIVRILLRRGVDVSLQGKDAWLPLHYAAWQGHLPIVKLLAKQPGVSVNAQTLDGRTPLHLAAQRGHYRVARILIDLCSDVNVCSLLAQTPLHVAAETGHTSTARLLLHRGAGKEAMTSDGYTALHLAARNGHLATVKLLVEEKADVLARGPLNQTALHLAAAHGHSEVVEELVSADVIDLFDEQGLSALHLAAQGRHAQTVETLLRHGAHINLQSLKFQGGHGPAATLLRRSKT

IRAK3 (human) = IRAK3 (human) (UniProt Q9Y616)
PAK1 (human) = PAK1 (human) (UniProt Q13153)
PDGFRA (human) = PDGFRA (human) (UniProt P16234)
KDR (human) = KDR (human) (UniProt P35968)
PRKCQ (human) = PRKCQ (human) (UniProt Q04759)
PAK2 (human) = PAK2 (human) (UniProt Q13177)
RPS6KA5 KD2 (human) = RPS6KA5 KD2 (human) (UniProt O75582)
Sequence of RPS6KA5 KD2 (human) (O75582 whole entry, looked up): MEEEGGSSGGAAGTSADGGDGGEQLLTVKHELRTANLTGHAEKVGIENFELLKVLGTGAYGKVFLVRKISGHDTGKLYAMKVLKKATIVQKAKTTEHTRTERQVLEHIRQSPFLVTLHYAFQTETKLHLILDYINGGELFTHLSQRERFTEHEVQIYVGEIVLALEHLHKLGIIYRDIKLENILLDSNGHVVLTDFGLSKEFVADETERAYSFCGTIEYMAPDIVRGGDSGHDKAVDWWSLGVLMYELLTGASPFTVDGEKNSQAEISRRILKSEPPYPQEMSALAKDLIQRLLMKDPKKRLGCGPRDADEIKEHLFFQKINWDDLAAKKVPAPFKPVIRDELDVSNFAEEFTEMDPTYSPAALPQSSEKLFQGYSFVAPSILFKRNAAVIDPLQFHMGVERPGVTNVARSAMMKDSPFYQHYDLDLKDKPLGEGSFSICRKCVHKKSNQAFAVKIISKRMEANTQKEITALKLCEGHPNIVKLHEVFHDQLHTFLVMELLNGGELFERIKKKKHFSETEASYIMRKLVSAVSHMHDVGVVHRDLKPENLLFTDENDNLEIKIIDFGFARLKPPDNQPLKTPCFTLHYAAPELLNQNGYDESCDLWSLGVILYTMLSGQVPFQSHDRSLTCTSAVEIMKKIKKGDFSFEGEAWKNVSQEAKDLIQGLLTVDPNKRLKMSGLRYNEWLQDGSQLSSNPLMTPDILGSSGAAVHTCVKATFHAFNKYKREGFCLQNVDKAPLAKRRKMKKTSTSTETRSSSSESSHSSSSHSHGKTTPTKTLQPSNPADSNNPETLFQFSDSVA

NTRK3 (human) = NTRK3 (human) (UniProt Q16288)
BMPR1A (human) = BMPR1A (human) (UniProt P36894)
MYLK4 (human) = MYLK4 (human) (UniProt Q86YV6)
AURKA (human) = AURKA (human) (UniProt O14965)
STK32B (human) = STK32B (human) (UniProt Q9NY57)
MYO3B (human) = MYO3B (human) (UniProt Q8WXR4)

SMILES: O=C1Nc2ccc(I)cc2/C1=C/c1cc(Br)c(O)c(Br)c1
- kinase still bound, per cent of control (CSNK1G2 (human)): 100%
- kinase still bound, per cent of control (ROCK2 (human)): 55%
- kinase still bound, per cent of control (FGFR4 (human)): 100%
- kinase still bound, per cent of control (MAP2K4 (human)): 3.4%
- kinase still bound, per cent of control (CSK (human)): 92%
- kinase still bound, per cent of control (TESK1 (human)): 100%
- kinase still bound, per cent of control (MAP4K3 (human)): 100%
- kinase still bound, per cent of control (CLK4 (human)): 36%
- kinase still bound, per cent of control (CAMKK2 (human)): 9%
- kinase still bound, per cent of control (PIP5K1A (human)): 19%
- kinase still bound, per cent of control (CDKL2 (human)): 82%
- kinase still bound, per cent of control (CDK5 (human)): 83%
- kinase still bound, per cent of control (STK10 (human)): 100%
- kinase still bound, per cent of control (MAPK6 (human)): 100%
- kinase still bound, per cent of control (INSR (human)): 100%
- kinase still bound, per cent of control (FGFR2 (human)): 59%
- kinase still bound, per cent of control (RPS6KA4 KD2 (human)): 47%
- kinase still bound, per cent of control [1]: 1.8%
- kinase still bound, per cent of control (MAP3K12 (human)): 80%
- kinase still bound, per cent of control (CHEK2 (human)): 12%
- kinase still bound, per cent of control (RPS6KA2 KD2 (human)): 45%
- kinase still bound, per cent of control [2]: 100%
- kinase still bound, per cent of control (MAP3K9 (human)): 47%
- kinase still bound, per cent of control (EPHB3 (human)): 100%
- kinase still bound, per cent of control (RPS6KA3 KD1 (human)): 36%
- kinase still bound, per cent of control (MAP4K4 (human)): 4.2%
- kinase still bound, per cent of control (RIPK4 (human)): 76%
- kinase still bound, per cent of control (IRAK3 (human)): 62%
- kinase still bound, per cent of control (PAK1 (human)): 100%
- kinase still bound, per cent of control (PDGFRA (human)): 22%
- kinase still bound, per cent of control (KDR (human)): 100%
- kinase still bound, per cent of control (PRKCQ (human)): 90%
- kinase still bound, per cent of control (PAK2 (human)): 53%
- kinase still bound, per cent of control (RPS6KA5 KD2 (human)): 63%
- kinase still bound, per cent of control (NTRK3 (human)): 35%
- kinase still bound, per cent of control (BMPR1A (human)): 8.8%
- kinase still bound, per cent of control (MYLK4 (human)): 14%
- kinase still bound, per cent of control (AURKA (human)): 65%
- kinase still bound, per cent of control (STK32B (human)): 100%
- kinase still bound, per cent of control (MYO3B (human)): 8.6%

SMILES: CCC(=O)N1CCN(c2ccc(-n3c(=O)ccc4cnc5ccc(-c6cnc7ccccc7c6)cc5c43)cc2C(F)(F)F)CC1
- kinase still bound, per cent of control (CSNK1G2 (human)): 100%
- kinase still bound, per cent of control (ROCK2 (human)): 50%
- kinase still bound, per cent of control (FGFR4 (human)): 21%
- kinase still bound, per cent of control (MAP2K4 (human)): 30%
- kinase still bound, per cent of control (CSK (human)): 71%
- kinase still bound, per cent of control (TESK1 (human)): 58%
- kinase still bound, per cent of control (MAP4K3 (human)): 1.9%
- kinase still bound, per cent of control (CLK4 (human)): 49%
- kinase still bound, per cent of control (CAMKK2 (human)): 85%
- kinase still bound, per cent of control (PIP5K1A (human)): 89%
- kinase still bound, per cent of control (CDKL2 (human)): 58%
- kinase still bound, per cent of control (CDK5 (human)): 100%
- kinase still bound, per cent of control (STK10 (human)): 79%
- kinase still bound, per cent of control (MAPK6 (human)): 1.8%
- kinase still bound, per cent of control (INSR (human)): 7.6%
- kinase still bound, per cent of control (FGFR2 (human)): 55%
- kinase still bound, per cent of control (RPS6KA4 KD2 (human)): 100%
- kinase still bound, per cent of control [1]: 50%
- kinase still bound, per cent of control (MAP3K12 (human)): 100%
- kinase still bound, per cent of control (CHEK2 (human)): 100%
- kinase still bound, per cent of control (RPS6KA2 KD2 (human)): 85%
- kinase still bound, per cent of control [2]: 55%
- kinase still bound, per cent of control (MAP3K9 (human)): 84%
- kinase still bound, per cent of control (EPHB3 (human)): 85%
- kinase still bound, per cent of control (RPS6KA3 KD1 (human)): 38%
- kinase still bound, per cent of control (MAP4K4 (human)): 5.2%
- kinase still bound, per cent of control (RIPK4 (human)): 100%
- kinase still bound, per cent of control (IRAK3 (human)): 27%
- kinase still bound, per cent of control (PAK1 (human)): 73%
- kinase still bound, per cent of control (PDGFRA (human)): 63%
- kinase still bound, per cent of control (KDR (human)): 65%
- kinase still bound, per cent of control (PRKCQ (human)): 91%
- kinase still bound, per cent of control (PAK2 (human)): 100%
- kinase still bound, per cent of control (RPS6KA5 KD2 (human)): 100%
- kinase still bound, per cent of control (NTRK3 (human)): 100%
- kinase still bound, per cent of control (BMPR1A (human)): 100%
- kinase still bound, per cent of control (MYLK4 (human)): 83%
- kinase still bound, per cent of control (AURKA (human)): 100%
- kinase still bound, per cent of control (STK32B (human)): 87%
- kinase still bound, per cent of control (MYO3B (human)): 100%
